Our source for the TGI and GI50 values is PubChem BioAssay (NCI).

Common to all, as to test: NCI tumour cell line growth inhibition, 48 h
In assay [1] the test system is DLD-1 colon.
Assay [2] concerns DMS 114 small cell lung.
In assay [3] the test system is KM20L2 colon.
Assay [4] deals with LXFL 529 NSCLC.
Assay [5] has as its system RXF-631 renal.
For assay [6], the system named is XF 498 CNS.
The subject of assay [7] is T-47D breast.
Assay [8] relates to HOP-18 NSCLC.
For assay [9], the system named is MDA-N.

Where “and” joins values, the source holds several entries; their conditions need not be identical. Equal entries are not always repeated.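 Step 1: Grow cells in 96-well plates. Step 2: Expose to compound for 48 hours at 5 concentrations. Step 3: Interpolate endpoints linearly; if unreached, use highest concentration. Here, GI50 denotes the concentration required for 50% inhibition of growth. The concentration for full growth arrest is given as TGI.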 Bounds are passed on as bounds.

Consider `c1ccc(C2Nc3ccccc3C3OCCCC23)cc1` (stereo not drawn), for which the TGI was over 100 µM in assay [1]; 62.4 µM in [2]; 47.7 µM in assay [3]; over 100 µM in assay [4]; over 100 µM in assay [5]; over 100 µM in assay [6].

For `O=C(Nc1c(Cl)cc([N+](=O)[O-])cc1Cl)C(=O)C(C1OC(=O)c2ccccc21)[N+](=O)[O-]` (stereo not drawn), the TGI in [1], in assay [2], in [3], in assay [4], in assay [5] and in assay [6] was over 100 µM throughout.

Take `COc1ccc(CCN2COc3c([C@@H](C)CCC=C(C)C)ccc(C)c3C2)cc1OC`: in assay [7], the GI50 was 1780 nM and the TGI worked out at 3.8 µM.

As to `Cc1c(C(=O)/C=C/c2ccccc2)[n+](=O)c2ccccc2n1[O-]`, the TGI in assay [1] was 27.5 µM; in assay [2], 22.2 µM; in assay [8], 57 µM; in assay [3], 35.5 µM; in [4], 26 µM; in assay [6], 24.6 µM.

As to `CN(C)CCN1C(=O)c2ccc3c4c(ccc(c24)C1=O)C(=O)N(CCN=C=S)C3=O`, in assay [7], the GI50 was 29.9 nM and the TGI amounted to 0.165 µM.

On to `CC(=O)C(=CN1CCN(C(=O)c2ccco2)C1=S)C(C)=O`, for which, in [7], the GI50 was 3650 nM and the TGI is 12.6 µM.

For `CC/C=C\C[C@H]1C/C=C2/C(=O)C=C[C@@H]2C/C=C\CCCC(=O)O1`, in [7], the GI50 was 1210 nM and the TGI amounted to 9.33 µM.

In assay [7], `COc1cc(/C=C/c2ccc(OC)c(OC)c2)cc(OC)c1` had a TGI of over 100 µM.

As to `CC1=C(C(=O)Nc2ccc(F)c(Cl)c2)C(c2cccc(O)c2)NC(=O)N1` (stereo not drawn), in assay [7], the GI50 is over 100000 nM and the TGI is over 100 µM.

For the molecule `O=S(=O)(Nc1cc(Sc2cccc3cccnc23)c(O)c2ccccc12)c1ccccc1`, in assay [7], the GI50 was 1560 nM and the TGI was determined as 4.79 µM.

On to `CCCCCCCCCCCCCCCCCCOc1ccccc1CC(=O)OCC[N+]1(C)CCCC1`, for which, in assay [7], the GI50 was 3000 nM and the TGI was 17 µM.

Consider `N#CC1CC2(C1)OCCS2` (stereo not drawn), for which the TGI in [1], in assay [3] and in assay [4] was over 100 µM in each case.

For the molecule `CC1=C[C@H]2c3c(c(O)c(O)c4oc(-c5ccccc5)cc(=O)c34)[C@H](c3cc(O)c(O)c4oc(-c5ccccc5)cc(=O)c34)[C@H]2C(C)(C)C1`, in assay [7], the GI50 is 1020 nM and the TGI stood at 17.1 µM.

For `Cn1c2ccccc2c(=O)c2ccc(Cl)cc21`, the TGI in assay [9] and in assay [7] was over 10 µM each time.

As to `C=C1CCC(CC[C@@H]2CC[C@]3(OC2)O[C@@]2(O)CC[C@]3(C)OC2(C)C)C(C)(C)[C@H]1C/C=C1/C(=O)OC[C@@H]1O` (stereo partly drawn), the TGI in assay [9] is 4.36 µM; in assay [7], 6.15 µM.

As for `CCSc1nc(SCC)c2cn[nH]c2n1`, in assay [7], the GI50 was 34200 nM and the TGI was over 100 µM.

As to `COc1ccc(CC2NCCc3cc(OC)c(OC)cc32)cc1Br` (stereo not drawn), the TGI in assay [1] is over 100 µM; in assay [2], 52.9 µM; in [8], over 100 µM; in [3], over 100 µM; in assay [4], over 100 µM; in [9], over 100 µM. In addition, the TGI in [7] was found to be 63.1 µM; in [6], 47 µM.

Turning to `COc1cc(NC(C)CCCN)c2nccc(C)c2c1` (stereo not drawn), the TGI in assay [9] was found to be 33.7 µM.

On to `CCCCCCCCCCCC(=O)OCC1OC(OC)C(NC(=O)N(CCCl)N=O)C(O)C1O` (stereo not drawn), for which the TGI was 52.3 µM in [1]; 39 µM in assay [2]; over 100 µM in assay [8]; 36.8 µM in assay [3]; 26.4 µM in assay [4]; 27.6 µM in assay [6].

For `COc1ccc(C(=O)COc2ccc(/C=C3\COc4ccc(OC)cc4C3=O)cc2)cc1`, in assay [7], the GI50 is 19100 nM and the TGI came out at 96.6 µM.

In the case of `O=c1c2ccccc2c(=O)c2c1[nH]c1c(-c3ccccc3)c(-c3ccccc3)c(=O)c12`, in [7], the GI50 is 1800 nM and the TGI is 7.76 µM.

`Clc1ccc(C=Nc2ccc3c(c2)Cc2ccccc2-3)c(Cl)c1`: the TGI in [9] and in [7] was over 100 µM in each case.

On to `O=c1cc(NC2CCN(CCCc3ccccc3)CC2)c2cc(Cl)ccc2o1`, for which, in assay [7], the GI50 was 12500 nM and the TGI was found to be 38.4 µM.

Regarding `O=C1CC2c3ccccc3CCC2c2ccccc21` (stereo not drawn), the TGI was 21.4 µM in [9] and over 100 µM in [7].

In the case of `O=C(/C=C\c1ccc(NCc2ccc(C(=O)O)cc2)cc1)CCl`, in assay [7], the GI50 was 2600 nM and the TGI is 12.5 µM.

Take `C#Cc1c(I)n(C2OC(CO[Si](C)(C)C(C)(C)C)C3OC(C)(C)OC32)c(=O)[nH]c1=O` (stereo not drawn): in [7], the GI50 is 5420 nM and the TGI came to 28 µM.

On to `CCc1nc(C(N)=O)c(Nc2ccc(N3CCC(N4CCN(C)CC4)CC3)c(OC)c2)nc1NC1CCOCC1`, for which, in assay [7], the GI50 was 13200 nM and > 10000 nM and 13400 nM; the TGI was 30 µM and > 10 µM and 32.7 µM.

Turning to `COc1ccc(OC)c2c(C(=O)O)c(Cc3ccccc3)ccc12`, the TGI in assay [1], in assay [2], in assay [8], in assay [3], in assay [4] and in [6] was over 100 µM each time.

`C1C[OH+]CC[OH+]CC[OH+]CC[OH+]CC[OH+]1.[Cl-].[V]`: the GI50 is over 100 µM in [1]; over 100 µM in [2]; 60.6 µM in assay [8]; over 100 µM in [3]; over 100 µM in assay [4]. Moreover, the TGI in assay [1], in assay [2], in assay [8], in assay [3] and in assay [4] was over 100 µM each time.

Consider `O=c1cccc(C#CC#CC2=CCCCC2)o1`, for which, in assay [7], the GI50 is 2730 nM and the TGI is 14.8 µM.
